Experiments:
Isocitrate lyase = target: T1, Isocitrate lyase (Mycobacterium tuberculosis, UniProt P9WKK7); assay: Inhibition of Mycobacterium tuberculosis recombinant isocitrate lyase expressed in Escherichia coli BL21 (DE3) using isocitrate as substrate after 10 mins by spectrometric analysis
T1 sequence (P9WKK7 whole entry): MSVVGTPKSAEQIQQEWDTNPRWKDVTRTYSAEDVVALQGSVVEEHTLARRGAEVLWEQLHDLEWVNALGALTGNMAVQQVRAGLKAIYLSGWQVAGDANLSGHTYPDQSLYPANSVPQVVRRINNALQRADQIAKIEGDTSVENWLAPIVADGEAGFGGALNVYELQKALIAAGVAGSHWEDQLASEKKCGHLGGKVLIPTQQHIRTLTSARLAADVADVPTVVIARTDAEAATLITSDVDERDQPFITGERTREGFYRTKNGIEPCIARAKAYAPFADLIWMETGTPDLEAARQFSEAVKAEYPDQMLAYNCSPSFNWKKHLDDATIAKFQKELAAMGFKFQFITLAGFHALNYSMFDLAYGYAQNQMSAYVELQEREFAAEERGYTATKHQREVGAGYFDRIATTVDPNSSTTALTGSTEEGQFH

[1] = target: T2, Isocitrate lyase (Mycobacterium tuberculosis) (UniProt P9WKK7); assay: Inhibition of Mycobacterium tuberculosis recombinant isocitrate lyase expressed in Escherichia coli BL21 (DE3) using isocitrate as substrate at 1 mg/mL by spectrometric analysis relative to control
T2 sequence (whole entry): T1 sequence (P9WKK7 whole entry)

Row | Molecule | IC50 (Isocitrate lyase) [µM] | inhibition [1] [%]
1 | O=C(O)CC[N+](=O)[O-] | 50.7 | 
2 | H-HISHLML-OH | 192 | 51
3 | H-HYSSHMR-OH [listing 1 of 2 here] | 126 | 
4 | H-HYSSHMR-OH [listing 2 of 2 here] |  | 72
5 | H-LTLGPLL-OH | 208 | 55
6 | H-LTQHLTA-OH | 214 | 56
7 | H-LYALATM-OH | 204 | 52
8 | H-NPPERSP-OH | 142 | 73
9 | H-NSSSLAQ-OH | 190 | 62
10 | H-QKASPGA-OH | 172 | 73
11 | H-SARVTSR-OH [listing 1 of 2 here] | 166 | 
12 | H-SARVTSR-OH [listing 2 of 2 here] |  | 65
13 | H-TELSLPS-OH | 182 | 61
14 | H-TMHLSPY-OH | 156 | 63
15 | H-VTSLKAT-OH | 228 | 51
